According to US12559461B2, “Antibiotic adjuvant compounds” (UNIVERSITY OF NOTRE DAME DU LAC, priority 2020, dated 2026):
Where two headings read alike, the source gives them in different places.

Tests used:
Assay type in all cases: cell-based, Acinetobacter baumannii
AB5075 [1] = test: Broth microdilution clarithromycin (CLR) potentiation and dose-response of adjuvant
Method in brief: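 A. baumannii AB5075 at 5×10^5 CFU/mL in CAMHB with fixed adjuvant (DMSO ≤0.3%) and two-fold serially diluted clarithromycin or colistin, stationary 16 h at 37° C. MIC = lowest concentration without visible growth; fold reduction versus antibiotic alone. Dose-response used adjuvant at 0–30 μM.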

[2] = test system: A. baumannii isolates (23 strains); test: Clarithromycin potentiation against AB isolates; settings: adjuvant at 10 μM
Experimental: Broth microdilution method for antibiotic potentiation. Day cultures (6 h) of bacteria in CAMHB were subcultured to 5×10^5 CFU/mL in CAMHB. Aliquots (4 mL) were placed in culture tubes and dosed with compound from 10 mM stock samples to give the desired concentration of the compound to be tested against the particular bacterial strain; this insured non-toxic DMSO concentrations ≤0.3% in each well. 1 mL of the resulting solution was placed in a separate culture and dosed with antibiotic at the highest concentration to be tested. Bacteria treated with antibiotic alone served as the control. Row one of a 96-well plate was filled with 200 μL of the antibiotic/2-AI solution, and rows 2-12 were filled with 100 μL each of the remaining 4 mL of bacterial subculture containing adjuvant at the desired concentration, except for the control lane which contained only bacterial subculture. Row one was then mixed five times, and 100 μL was transferred to row two, which was then mixed five times before being transferred to row three. This process was repeated until all rows had been mixed, except for row twelve which would have only 2-AI to serve as a control to monitor potential toxicity. The 96-well plate was then covered in Glad Press n'Seal and incubated under stationary conditions at 37° C. for 16 h. MIC values were determined as the lowest concentration at which no bacterial growth was observed, and fold reductions were determined by comparison to antibiotic control lane.

[3] = test system: A. baumannii isolates (23 strains); test: Minimum inhibitory concentration against AB isolates; settings: Acinetobacter baumannii, compound alone
Experimental: Broth microdilution method for MIC determination. Day cultures (6 h) of each bacterial strain in cation adjusted Mueller Hinton II broth (CAMHB, Fisher Scientific U.S.) were subcultured to 5×10^5 CFU/mL in CAMHB. Aliquots (1 mL) were placed in culture tubes and compound was added from 10 mM stock samples in DMSO, such that compound concentration equaled highest concentration tested (200 μM). Samples were then aliquoted (200 μL) into the first wells of a 96-well plate, with all remaining wells being filled with 100 μL of initial bacterial subculture. Row one wells were mixed five times, before 100 μL was transferred to row two. Row two was then mixed five times, and 100 μL was transferred to row three. This process was repeated until the final row had been mixed; this served to serially dilute the compound. Plates were then covered with GLAD Press n'Seal and incubated under stationary conditions at 37° C. for 16 h. MIC values were then recorded as the lowest concentration at which no bacterial growth was observed.

AB5075 [4] = test: Broth microdilution MIC of compound alone (standalone toxicity)
Method in brief: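 A. baumannii 5075 subcultured to 5×10^5 CFU/mL in cation-adjusted Mueller-Hinton broth; compound twofold serially diluted from 200 μM (DMSO stock) and incubated stationary at 37° C for 16 h. MIC taken as lowest concentration with no visible growth; duplicates, repeated at least twice.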

- CLR MIC (AB5075 [1]; compound tested at 5 μM): 8 µg/mL
- Fold Reduction of CLR MIC (AB5075 [1]; compound tested at 5 μM): 4 fold
- CLR MIC (AB5075 [1]; compound tested at 7.5 μM): 1 µg/mL
- Fold Reduction of CLR MIC (AB5075 [1]; compound tested at 7.5 μM): 32 fold
- CLR MIC (AB5075 [1]; compound tested at 10 μM): 0.5 µg/mL
- Fold Reduction of CLR MIC (AB5075 [1]; compound tested at 10 μM): 64 fold
- CLR MIC (AB5075 [1]; compound tested at 20 μM): 0.5 µg/mL
- Fold Reduction of CLR MIC (AB5075 [1]; compound tested at 20 μM): 64 fold
- CLR MIC (AB5075 [1]; compound tested at 30 μM): 0.5 µg/mL
- Fold Reduction of CLR MIC (AB5075 [1]; compound tested at 30 μM): 64 fold
- CLR MIC + adjuvant ([2]; A. baumannii strain 3560): 2 µg/mL
- CLR MIC + adjuvant ([2]; A. baumannii strain 3785): 4 µg/mL
- CLR MIC + adjuvant ([2]; A. baumannii strain 3806): 0.5 µg/mL
- CLR MIC + adjuvant ([2]; A. baumannii strain 3927): 2 µg/mL
- CLR MIC + adjuvant ([2]; A. baumannii strain 4025): 1 µg/mL
- CLR MIC + adjuvant ([2]; A. baumannii strain 4026): 4 µg/mL
- CLR MIC + adjuvant ([2]; A. baumannii strain 4027): 1 µg/mL
- CLR MIC + adjuvant ([2]; A. baumannii strain 4052): 1 µg/mL
- CLR MIC + adjuvant ([2]; A. baumannii strain 4269): 2 µg/mL
- CLR MIC + adjuvant ([2]; A. baumannii strain 4448): 2 µg/mL
- CLR MIC + adjuvant ([2]; A. baumannii strain 4456): 2 µg/mL
- CLR MIC + adjuvant ([2]; A. baumannii strain 4490): 2 µg/mL
- CLR MIC + adjuvant ([2]; A. baumannii strain 4498): 2 µg/mL
- CLR MIC + adjuvant ([2]; A. baumannii strain 4795): 2 µg/mL
- CLR MIC + adjuvant ([2]; A. baumannii strain 4857): 1 µg/mL
- CLR MIC + adjuvant ([2]; A. baumannii strain 4878): 2 µg/mL
- CLR MIC + adjuvant ([2]; A. baumannii strain 4957): 4 µg/mL
- CLR MIC + adjuvant ([2]; A. baumannii strain 4991): 2 µg/mL
- CLR MIC + adjuvant ([2]; A. baumannii strain 5001): 4 µg/mL
- CLR MIC + adjuvant ([2]; A. baumannii strain 5197): 2 µg/mL
- CLR MIC + adjuvant ([2]; A. baumannii strain 5256): 1 µg/mL
- CLR MIC + adjuvant ([2]; A. baumannii strain 5711): 4 µg/mL
- CLR MIC + adjuvant ([2]; A. baumannii strain 8967): 1 µg/mL
- MIC ([3]; A. baumannii strain 3560, read-out: Minimum inhibitory concentration of compound): 50 µM
- MIC ([3]; A. baumannii strain 3785, read-out: Minimum inhibitory concentration of compound): 200 µM
- MIC ([3]; A. baumannii strain 3806, read-out: Minimum inhibitory concentration of compound): 200 µM
- MIC ([3]; A. baumannii strain 3927, read-out: Minimum inhibitory concentration of compound): > 200 µM
- MIC ([3]; A. baumannii strain 4025, read-out: Minimum inhibitory concentration of compound): 100 µM
- MIC ([3]; A. baumannii strain 4026, read-out: Minimum inhibitory concentration of compound): 100 µM
- MIC ([3]; A. baumannii strain 4027, read-out: Minimum inhibitory concentration of compound): 200 µM
- MIC ([3]; A. baumannii strain 4052, read-out: Minimum inhibitory concentration of compound): > 200 µM
- MIC ([3]; A. baumannii strain 4269, read-out: Minimum inhibitory concentration of compound): > 200 µM
- MIC ([3]; A. baumannii strain 4448, read-out: Minimum inhibitory concentration of compound): > 200 µM
- MIC ([3]; A. baumannii strain 4456, read-out: Minimum inhibitory concentration of compound): 50 µM
- MIC ([3]; A. baumannii strain 4490, read-out: Minimum inhibitory concentration of compound): > 200 µM
- MIC ([3]; A. baumannii strain 4498, read-out: Minimum inhibitory concentration of compound): 100 µM
- MIC ([3]; A. baumannii strain 4795, read-out: Minimum inhibitory concentration of compound): 100 µM
- MIC ([3]; A. baumannii strain 4857, read-out: Minimum inhibitory concentration of compound): 50 µM
- MIC ([3]; A. baumannii strain 4878, read-out: Minimum inhibitory concentration of compound): 200 µM
- MIC ([3]; A. baumannii strain 4957, read-out: Minimum inhibitory concentration of compound): > 200 µM
- MIC ([3]; A. baumannii strain 4991, read-out: Minimum inhibitory concentration of compound): > 200 µM
- MIC ([3]; A. baumannii strain 5001, read-out: Minimum inhibitory concentration of compound): > 200 µM
- MIC ([3]; A. baumannii strain 5197, read-out: Minimum inhibitory concentration of compound): > 200 µM
- MIC ([3]; A. baumannii strain 5256, read-out: Minimum inhibitory concentration of compound): > 200 µM
- MIC ([3]; A. baumannii strain 5711, read-out: Minimum inhibitory concentration of compound): > 200 µM
- MIC ([3]; A. baumannii strain 8967, read-out: Minimum inhibitory concentration of compound): > 200 µM
- MIC ([3]; remaining 20 strains, read-out: MIC values): ≥ 100 µM
- MIC ([3]; three of the AB isolates, read-out: MIC values): 50 µM
SMILES: Cl.Nc1nc(-c2ccc(NC(=O)c3ccc(Cl)c(Cl)c3)cc2F)c[nH]1 [Compound 15b, N-(4-(2-amino-1H-imidazol-4-yl)-3-fluorophenyl)-3,4-dichlorobenzamide hydrochloride]
- MIC (AB5075 [4]; Acinetobacter baumannii): > 200 µM
- MIC (AB5075 [4]; hydrochloride): >200 µM
